Assay [1] addresses T1, Cannabinoid receptor 1 (Homo sapiens, UniProt P21554). In words: Displacement of [3H]CP55940 from human CB1 receptor expressed in CHO cells at 0.001 to 10 uM. The following applies: filed as positive allosteric modulator, dose 0.001-10 µM. The class given is cell-based. (In general: In a radioligand displacement assay an active substance lowers the binding of a labelled ligand.)

Assay [2] has as its target T2, Cannabinoid receptor 2 (Homo sapiens, UniProt P34972). Description: Displacement of [3H]CP55940 from human CB2 receptor expressed in CHO cells at 10 uM. The format is cell-based. The following applies: filed as positive allosteric modulator.
The target of assay [3] is T2, Cannabinoid receptor 2. In words: Displacement of [3H]CP55940 from human CB2 receptor expressed in CHO cells upto 1 uM. The class given is cell-based.
Assay [4] has as its target T1, Cannabinoid receptor 1. In words: Displacement of [3H]CP55940 from human CB1 receptor expressed in CHO cell membrane at 0.001 to 10 uM incubated for 2 hrs relative to control. The format is cell membranes. The settings on record: dose 0.001-10 µM.
The target of assay [5] is T2, Cannabinoid receptor 2. Description: Displacement of [3H]CP55940 from human CB2 receptor expressed in CHO cell membrane incubated for 2 hrs. The format is cell membranes.
In assay [6] the target is T2, Cannabinoid receptor 2. In words: Displacement of [3H]CP55940 from human CB2 receptor expressed in CHO cell membrane at 0.001 to 10 uM incubated for 2 hrs relative to control. The class given is cell membranes. The settings on record: dose 0.001-10 µM.
Assay [7] deals with T2, Cannabinoid receptor 2. Description: Agonist activity at human CB2 receptor expressed in CHO cells assessed as inhibition of forskolin-induced cAMP production at 0.001 to 10 uM incubated for 90 mins by HitHunter assay. The following applies: dose 0.001-10 µM. The format is functional, cell-based. (Changes in cAMP serve as a functional read-out for many G protein-coupled receptors.)

The target in assay [8] is T1, Cannabinoid receptor 1. Description: Positive allosteric modulation at human CB1 receptor expressed in CHO cells assessed as inhibition of forskolin-induced cAMP production incubated for 90 mins by HitHunter assay. The settings on record: filed as positive allosteric modulator. The class given is functional, cell-based.
For assay [9], the target named is T1, Cannabinoid receptor 1. Description: Positive allosteric modulation at human CB1 receptor expressed in CHO cells assessed as inhibition of forskolin-induced cAMP production incubated for 90 mins in presence of FM6b by HitHunter assay relative to control. The following applies: filed as positive allosteric modulator. The format is functional, cell-based.
The target in assay [10] is T2, Cannabinoid receptor 2. Description: Positive allosteric modulation at human CB2 receptor expressed in CHO cells assessed as inhibition of forskolin-induced cAMP production incubated for 90 mins in presence of FM6b by HitHunter assay. The class given is functional, cell-based.
Assay [11] deals with T2, Cannabinoid receptor 2. In words: Positive allosteric modulation at human CB2 receptor expressed in CHO cells assessed as inhibition of forskolin-induced cAMP production incubated for 90 mins in presence of FM6b by HitHunter assay relative to control. The class given is functional, cell-based. The following applies: filed as positive allosteric modulator.
Assay [12] has as its target T2, Cannabinoid receptor 2. Description: Positive allosteric modulation at human CB2 receptor expressed in CHO cells assessed as inhibition of forskolin-induced cAMP production incubated for 90 mins in presence of CP55940 ligand by HitHunter assay. The format is functional, cell-based.
The target in assay [13] is T2, Cannabinoid receptor 2. Description: Positive allosteric modulation at human CB2 receptor expressed in CHO cells assessed as inhibition of forskolin-induced cAMP production incubated for 90 mins in presence of CP55940 ligand by HitHunter assay relative to control. The class given is functional, cell-based. The settings on record: filed as positive allosteric modulator.

Assay [14] concerns HepG2. In words: Induction of lipid accumulation in human HepG2 cells assessed as increase in lipolysis at 0.1 to 25 uM incubated for 24 hrs by Oil Red O staining based analysis. The following applies: dose 0.1-25 µM. The format is functional, cell-based.
Assay [15] deals with HepG2. In words: Anti-steatosis activity against oleate/palmitate-induced human HepG2 cells assessed as induction of lipolysis at 25 uM incubated for 24 hrs. The class given is functional, cell-based.
The subject of assay [16] is HepG2. In words: Induction of lipid accumulation in human HepG2 cells at 1 uM incubated for 24 hrs by Oil Red O staining based analysis. The format is functional, cell-based.
Assay [17] deals with T1, Cannabinoid receptor 1. In words: Displacement of [3H]CP55940 from human CB1 receptor expressed in CHO cell membrane incubated for 2 hrs. The format is cell membranes.
The target of assay [18] is T2, Cannabinoid receptor 2. Description: Agonist activity at human CB2 receptor expressed in CHO cells assessed as inhibition of forskolin-induced cAMP production at 10 uM incubated for 90 mins by HitHunter assay. The format is functional, cell-based. The following applies: filed as agonist.
Assay [19] has as its target T2, Cannabinoid receptor 2. Description: Agonist activity at human CB2 receptor expressed in CHO cells assessed as inhibition of forskolin-induced cAMP production incubated for 90 mins in presence of CP55940 ligand by HitHunter assay. The format is functional, cell-based.
Assay [20] concerns the target T2, Cannabinoid receptor 2. In words: Agonist activity at human CB2 receptor expressed in CHO cells assessed as inhibition of forskolin-induced cAMP production at 100 nM incubated for 90 mins in presence of CP55940 ligand by HitHunter assay relative to control. The following applies: filed as agonist. The class given is functional, cell-based.
Assay [21] addresses T1, Cannabinoid receptor 1. In words: Agonist activity at human CB1 receptor expressed in CHO cells assessed as inhibition of forskolin-induced cAMP production at 100 nM incubated for 90 mins in presence of CP55940 ligand by HitHunter assay relative to control. The class given is functional, cell-based.
The target of assay [22] is T2, Cannabinoid receptor 2. Description: Agonist activity at human CB2 receptor expressed in CHO cells assessed as inhibition of forskolin-induced cAMP production at 100 nM incubated for 90 mins in presence of FM6b ligand by HitHunter assay relative to control. The format is functional, cell-based. The settings on record: filed as agonist.
Assay [23] has as its target T1, Cannabinoid receptor 1. In words: Agonist activity at human CB1 receptor expressed in CHO cells assessed as inhibition of forskolin-induced cAMP production incubated for 90 mins in presence of CP55940 ligand by HitHunter assay. The class given is functional, cell-based.
The target of assay [24] is T2, Cannabinoid receptor 2. Description: Agonist activity at human CB2 receptor expressed in CHO cells assessed as inhibition of forskolin-induced cAMP production incubated for 90 mins in presence of FM6b ligand by HitHunter assay. The class given is functional, cell-based.
In assay [25] the target is T1, Cannabinoid receptor 1. Description: Agonist activity at human CB1 receptor expressed in CHO cells assessed as inhibition of forskolin-induced cAMP production incubated for 90 mins in presence of FM6b ligand by HitHunter assay. The format is functional, cell-based.
For assay [26], the target named is T1, Cannabinoid receptor 1. Description: Agonist activity at human CB1 receptor expressed in CHO cells assessed as inhibition of forskolin-induced cAMP production at 100 nM incubated for 90 mins in presence of FM6b ligand by HitHunter assay relative to control. The settings on record: filed as agonist. The class given is functional, cell-based.
The target in assay [27] is T1, Cannabinoid receptor 1. In words: Agonist activity at human CB1 receptor expressed in CHO cells assessed as inhibition of forskolin-induced cAMP production incubated for 90 mins in presence of GAT211 ligand by HitHunter assay. The class given is functional, cell-based.
For assay [28], the target named is T1, Cannabinoid receptor 1. Description: Agonist activity at human CB1 receptor expressed in CHO cells assessed as inhibition of forskolin-induced cAMP production at 100 nM incubated for 90 mins in presence of GAT211 ligand by HitHunter assay relative to control. The format is functional, cell-based.
The target of assay [29] is T1, Cannabinoid receptor 1. Description: Displacement of [3H]CP55940 from human CB1 receptor. The settings on record: filed as agonist.
The target of assay [30] is T2, Cannabinoid receptor 2. Description: Displacement of [3H]CP55940 from human CB2 receptor. The settings on record: filed as agonist.
Assay [31] concerns the target T2, Cannabinoid receptor 2. Description: Agonist activity at human CB2 receptor expressed in CHO cells assessed as inhibition of forskolin-induced cAMP production at 1.8 nM incubated for 90 mins by HitHunter assay relative to control. The format is functional, cell-based. The following applies: filed as agonist. The arrangement: scale not given: the % may be the effect or the level left.

SMILES strings stand for the structures. Calls of active or inactive are those of the source. No cut-off for these calls is given here. A value given as a limit tells only on which side of the number the result lay.

T1 sequence (P21554 whole entry): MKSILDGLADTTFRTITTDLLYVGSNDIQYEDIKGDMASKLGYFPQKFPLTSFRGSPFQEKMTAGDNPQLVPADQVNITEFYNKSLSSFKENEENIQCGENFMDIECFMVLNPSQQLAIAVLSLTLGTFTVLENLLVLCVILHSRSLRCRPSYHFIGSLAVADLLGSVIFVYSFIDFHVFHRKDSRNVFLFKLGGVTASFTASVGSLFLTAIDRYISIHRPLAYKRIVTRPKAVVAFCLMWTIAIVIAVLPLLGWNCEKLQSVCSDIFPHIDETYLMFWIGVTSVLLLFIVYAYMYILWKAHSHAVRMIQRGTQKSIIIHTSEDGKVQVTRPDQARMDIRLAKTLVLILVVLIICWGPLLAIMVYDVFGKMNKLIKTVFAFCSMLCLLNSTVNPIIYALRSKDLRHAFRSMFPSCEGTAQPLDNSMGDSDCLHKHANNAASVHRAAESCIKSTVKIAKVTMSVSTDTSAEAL
T2 sequence (P34972 whole entry): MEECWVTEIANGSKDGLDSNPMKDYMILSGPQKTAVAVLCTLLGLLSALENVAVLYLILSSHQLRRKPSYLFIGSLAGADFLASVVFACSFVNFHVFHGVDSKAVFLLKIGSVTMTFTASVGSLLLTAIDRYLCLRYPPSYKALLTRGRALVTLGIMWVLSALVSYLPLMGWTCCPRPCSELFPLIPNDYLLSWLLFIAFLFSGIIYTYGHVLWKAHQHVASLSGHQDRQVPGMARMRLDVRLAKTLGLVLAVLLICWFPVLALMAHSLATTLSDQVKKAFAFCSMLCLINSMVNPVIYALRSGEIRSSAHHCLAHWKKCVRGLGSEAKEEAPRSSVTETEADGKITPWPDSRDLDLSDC

For orientation: Emax means the greatest response seen or fitted, relative to the assay's reference. What is called EC50 is the concentration at which the effect is half-maximal. As to `O=[N+]([O-])CC(c1ccccc1)c1c(-c2ccccc2)[nH]c2ccccc12` (stereo not drawn), the outcome in assay [1], in assay [2] and in assay [8] was Active. The outcome in [3], in assay [14] and in assay [15] was inactive. Further, the Emax in [4] (filed as positive allosteric modulator) turned out to be 140%; in [6], 29%; in assay [9], 85%; in assay [11], 98%; in assay [13], 105%. For the same compound, the IC50 in assay [5] (read-out: pIC50 (converted)) is greater than 10000 nM. Moreover, the Activity result in assay [7] was “No effect”. The EC50 in [10] turned out to be 170 nM; in assay [12] it was 0.06 nM.
In the case of `Cc1c(C(=O)NN2CCCCC2)nn(-c2ccc(Cl)cc2Cl)c1-c1ccc(Cl)cc1`, the result in assay [16] was Active.
For `Cc1c(Br)cc(C(=O)NC2CCCCCC2)c(=O)n1CCCn1cc(CCCC(=O)NCC(c2ccccc2)c2c(-c3ccccc3)[nH]c3ccccc23)nn1` (stereo not drawn), the IC50 in assay [17] was 25.1 nM; in assay [5] (read-out: IC50) it was 100 nM. Besides, the Emax in [4] came out at 31%; in assay [6] (filed as agonist), 160%; in [20], 104%; in [21] (filed as agonist) it was 79%; in [22], 73%; in assay [26] it was 120%. In addition, the Emax in assay [28] stood at 0.335%. The result in [18] was Active. In addition, the EC50 in assay [19] is 7.94 nM; in assay [23], 25.1 nM; in [24], 398 nM; in assay [25] it was 631 nM; in [27], 15.8 nM.
On to `Cc1c(Br)cc(C(=O)NC2CCCCCC2)c(=O)n1Cc1ccc(F)cc1`, for which the outcome in assay [29] and in [30] was Active. In addition, the IC50 in assay [17] is 0.794 nM; in assay [5] (read-out: pIC50 (converted)), 6.31 nM. For the same compound, the values for the maximal response (Emax) in assay [4] and in [6] were 29% and 13%, respectively. For the same compound, the Activity in [31] worked out at 104%. In addition, the result in assay [15] was inactive.
`Cc1c(Br)cc(C(=O)NC2CCCCCC2)c(=O)n1CCCn1cc(CCCCC(=O)NCC(c2ccccc2)c2c(-c3ccccc3)[nH]c3ccccc23)nn1` (stereo not drawn) had an IC50 in [17] of 0.631 nM. Moreover, the Emax stood at 60% in assay [4] (filed as agonist); 97% in assay [6] (filed as agonist); 31% in assay [21]; 67% in [26]; 3.32% in assay [28]. Moreover, in [18], the result was Active. The EC50 is 25.1 nM in assay [23] and 63.1 nM in [25].

For the origin of these results see ChEMBL document CHEMBL6096683, “Novel Orthosteric/Allosteric Ligands of Cannabinoid Receptors: An Unexpected Pharmacological Profile” (J Med Chem, 2025).
